What was measured:
[1] = target: T1, hGPR65 (Homo sapiens, UniProt Q8IYL9); assay: cAMP detection (Lance Ultra), GPR65 KO HeLa reconstituted with hGPR65; 21K screen dose confirmation; format: cell-based; details: HeLa GPR65 KO + hGPR65, pH 7.1, 30 min, normalized to DMSO and 100 μM forskolin; read-out: WT EC50
T1 construct: expressed in transfected cells; host or cells: HeLa (ATCC CCL-2), lentiviral transduction, pLX317
Procedure: (§1) The Lance Ultra cAMP Kit (PerkinElmer, TRF0264) was used for cAMP detection, and included the following reagents: ULight anti-cAMP antibody, Eu-cAMP tracer, 7.5% BSA Stabilizer solution, and cAMP detection buffer. Stimulation buffer was prepared as described by the kit manufacturer as follows: Hanks buffered saline solution (HBSS, Life Technologies, 14025-126) containing 0.5 mM IBMX (3-isobutyl-1-methylxanthine, Sigma-Aldrich, I7018) and buffered with 1 M Hepes (15630-080). Stimulation buffer was then adjusted to pH 7.1 using 12 N HCl. HeLa cells were lifted using Versene and then suspended at 2.5 × 10^5 cells/ml in stimulation buffer. Cells were then plated at 20 μl per well (5000 cells per well) in white, opaque OptiPlate 384-well MicroPlates (PerkinElmer, 6007299) using a Thermo Fisher Scientific Combi liquid dispenser. Compounds, stored at 5 mM in DMSO for the primary screen, or in a range of concentrations from 39 μM to 20 mM for dose curves, were transferred by the CyBio CyBi-Well Vario pin transfer tool with 100-nl pins (V&P FP1NS50H, 50-nl slot, 0.457-mm diameter, hydrophobic coated), into each assay well, 100 nl per well for a final assay concentration of 25 μM for the primary screen, or 195 nM to 100 μM for dose curves. Assay plates were then incubated at RT for 30 min. Eu-cAMP tracer was diluted 1:33 into detection buffer and the final solution then distributed into assay wells, 5 μl per well. ULight anti-cAMP antibody was diluted 1:100 into detection buffer, then distributed into assay wells, also 5 μl per well. Assay plates were then incubated at RT in the dark for 1 hour. Eu-cAMP tracer and Förster resonance energy transfer (FRET) emissions were then read using a PerkinElmer EnVision Multimode plate reader (ENVISION21040010), exciting each well at 320 nm [UV2 (TRF) 320 filter] and reading emissions at 615 nm (Europium 615 filter) and 665 nm (APC665 filter). Data analysis was performed using Genedata Screener and GraphPad Prism.
(§2) HeLa KO cell lines were generated using the px330 plasmid CRISPR system as previously described ([18]). Briefly, HeLa cells were transfected with a Cas9 vector containing a gene-specific single-guide RNA to target the GPR65 coding exon. Forty-eight to 72 hours after transfection, single clones were obtained through limiting dilution and then sequenced to validate the KO. Reconstituted cell lines were produced by transducing KO cells with empty lentivirus or lentivirus containing hGPR65 or mGPR65. After 48 hours, cells were treated with puromycin (3 μg/ml; InvivoGen, ant-pr-1) and resistant cells were used in experiments.

[2] = system: GPR65 KO HeLa cells + pLX empty vector; assay: cAMP detection, GPR65 KO HeLa + empty pLX vector (null control); format: cell-based, human; details: HeLa GPR65 KO + pLX, pH 7.1, 30 min, normalized to DMSO and 100 μM forskolin
Procedure: as §1, §2

T1 sequence (Q8IYL9 whole entry): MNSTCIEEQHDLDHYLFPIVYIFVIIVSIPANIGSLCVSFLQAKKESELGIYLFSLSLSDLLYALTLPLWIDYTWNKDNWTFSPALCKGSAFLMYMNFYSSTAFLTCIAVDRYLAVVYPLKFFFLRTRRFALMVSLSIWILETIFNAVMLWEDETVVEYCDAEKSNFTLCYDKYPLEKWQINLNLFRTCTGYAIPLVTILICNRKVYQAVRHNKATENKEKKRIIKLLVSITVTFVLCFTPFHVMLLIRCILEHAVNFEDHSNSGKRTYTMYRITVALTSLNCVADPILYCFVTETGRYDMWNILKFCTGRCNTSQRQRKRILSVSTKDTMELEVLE

With COc1ccc(C(=O)c2cn(CC(=O)Nc3nc4c(s3)CCCC4)c3cnccc23)cc1 [BRD-K74442183-001-02-5] the EC50 [1] was < 30 µM and the EC50 [2] was < 30 µM.
In the case of Cc1cc2c(cc1-c1cncn1CCN(C)C1CCCC1)n(C)c(=O)n2C [BRD-K91081402-001-02-5], the EC50 [1] is reported as > 100 µM and the EC50 [2] is reported as > 100 µM.
Compound Cc1cnc(N)c(C(=O)C2CCN(C(=O)c3cnc(C)nc3C)CC2)c1 [BRD-K07158347-001-02-2] has an EC50 [1] of 18.3 µM and an EC50 [2] of 17 µM.
Cc1nccn1-c1ccc(CN(Cc2cccnc2)C2CC(C)(C)NC(C)(C)C2)cc1 [BRD-K56921026-001-02-1] showed an EC50 [1] of 57 µM and an EC50 [2] of 50.8 µM.
For Cn1c(=O)n(C)c2cc(NC(=O)CSc3ncc(C#N)c(N)n3)ccc21 [BRD-K40764399-001-02-3], the EC50 [1] was > 100 µM and the EC50 [2] was > 100 µM.
With COc1cc(Br)c(-c2cc3ccccc3oc2=O)cc1OC [BRD-K22294093-001-02-2] the EC50 [1] was < 10 µM and the EC50 [2] was < 10 µM.
With COc1ccc(Nc2nnc(-c3ccc(C(N)=O)cc3)c3ccccc23)cc1 [BRD-K46612369-001-11-5] the EC50 [1] was > 100 µM and the EC50 [2] was > 100 µM.
Cc1cnccc1CN1CC(C(=O)O)CC1=O (stereo not drawn) [BRD-A19095755-001-02-9] showed an EC50 [1] of 20.1 µM and an EC50 [2] of 16.9 µM.
In the case of O=C(c1ccc2nc[nH]c2c1)N1CCC(CCOc2ccccc2)(C(=O)O)CC1 [BRD-K25972060-001-03-7], the EC50 [1] is reported as 4.6 µM and the EC50 [2] is reported as 4.9 µM.
Compound O=C(c1cc2c([nH]c1=O)CCC2)N1CCN(c2ccnc3cc(Cl)ccc23)CC1 [BRD-K91175373-001-02-0] has an EC50 [1] of 20.1 µM and an EC50 [2] of 16.9 µM.
CC(=O)N1CCCC(CCCc2ccncc2)(C(=O)O)C1 (stereo not drawn) [BRD-A44875014-001-02-0] showed an EC50 [1] of 13.2 µM and an EC50 [2] of 14.7 µM.
In the case of CCCCC(CC)C(=O)Oc1ccc2c(c1)oc(=O)c1ccccc12 (stereo not drawn) [BRD-A19872532-001-02-1], the EC50 [1] is reported as > 100 µM and the EC50 [2] is reported as > 100 µM.
O=C1CC(N2CCN(c3ncccn3)CC2)C(=O)N1c1ccccc1 (stereo not drawn) [BRD-A87117975-001-02-2] was tested, and the EC50 [1] was 71.1 µM and the EC50 [2] was 54.8 µM.
For O=C(O)c1nccnc1C(=O)N1CCCN(c2c(Cl)cncc2Cl)CC1 [BRD-K53955368-001-02-8], the EC50 [1] was > 100 µM and the EC50 [2] was > 100 µM.
In the case of Cc1nc(C2CCCNC2)cc(N(C)Cc2cccc3cnccc23)n1 (stereo not drawn) [BRD-A78843635-001-02-6], the EC50 [1] is reported as > 100 µM and the EC50 [2] is reported as 95.8 µM.
COc1ccc(NC(=O)CSc2nc3ccc(C)cc3cc2C#N)cc1 [BRD-K45250069-001-02-7] was tested, and the EC50 [1] was > 100 µM and the EC50 [2] was > 100 µM.
O=C(O)CCSCCc1ccncc1 [BRD-K06534048-001-02-7] gave an EC50 [1] of 37.8 µM and an EC50 [2] of 29.3 µM.
For O=C(Cn1nnc(-c2ccccc2NC(=O)c2ccccc2)n1)NC1CCCCC1 [BRD-K79778627-001-02-1], the EC50 [1] was > 100 µM and the EC50 [2] was 73.7 µM.
Work on CN(Cc1ccc2ncccc2c1)C(=O)[C@@H]1C[C@H](N)CN1C [BRD-K56675411-001-02-6] yielded an EC50 [1] of 70.2 µM and an EC50 [2] of 57.3 µM.
CN(C)CCOC(=O)C1CC2=C(CCCC2(C)C)CC1C(=O)O (stereo not drawn) [BRD-A91973386-001-02-5] gave an EC50 [1] of 59.6 µM and an EC50 [2] of 70.7 µM.
For N#Cc1cnc(SCc2cc(=O)[nH]c3ccccc23)nc1N [BRD-K39252032-001-02-5], the EC50 [1] was > 100 µM and the EC50 [2] was 67.6 µM.
For O=c1c(-c2ccccc2)nnc2sc(-c3ccc4c(c3)OCCO4)nn12 [BRD-K26812102-001-02-6], the EC50 [1] was > 100 µM and the EC50 [2] was > 100 µM.
Compound O=S1(=O)CCC(Cn2cc(-c3ccnc4ccccc34)nn2)C1 (stereo not drawn) [BRD-A69528226-001-02-9] has an EC50 [1] of 19.9 µM and an EC50 [2] of 17 µM.
Cn1ccc2c(-c3cccc(=O)[nH]3)ccnc21 [BRD-K33217544-001-03-3] gave an EC50 [1] of 91.8 µM and an EC50 [2] of 89.8 µM.
In the case of O=C(Nc1cccc2nsnc12)c1sc2ccccc2c1Cl [BRD-K76966415-001-02-1], the EC50 [1] is reported as < 30 µM and the EC50 [2] is reported as < 30 µM.
In the case of c1ccc(-c2cc3ncnc(N4CCSCC4)c3s2)cc1 [BRD-K51028315-001-02-0], the EC50 [1] is reported as > 100 µM and the EC50 [2] is reported as > 100 µM.
O=C(CN1CCC(c2ccncc2)CC1)NCc1cccs1 [BRD-K63268990-001-02-0] was tested, and the EC50 [1] was > 100 µM and the EC50 [2] was > 100 µM.
